Measurements as given in ChEMBL document CHEMBL5649169 (ChemMedChem, 2018).

What was measured:
[1] = biological target: 5'-AMP-activated protein kinase subunit gamma-1 (Homo sapiens) (UniProt P54619)
[2] = biological target: Sister chromatid cohesion protein PDS5 homolog A (Homo sapiens) (UniProt Q29RF7)
[3] = biological target: Serine/threonine-protein phosphatase PGAM5, mitochondrial (Homo sapiens) (UniProt Q96HS1)
[4] = biological target: Insulin-like growth factor 2 mRNA-binding protein 1 (Homo sapiens) (UniProt Q9NZI8)
[5] = biological target: Protein arginine N-methyltransferase 5 (Homo sapiens) (UniProt O14744)
Protein arginine N-methyltransferase 5 (Homo sapiens), sequence (O14744 whole entry): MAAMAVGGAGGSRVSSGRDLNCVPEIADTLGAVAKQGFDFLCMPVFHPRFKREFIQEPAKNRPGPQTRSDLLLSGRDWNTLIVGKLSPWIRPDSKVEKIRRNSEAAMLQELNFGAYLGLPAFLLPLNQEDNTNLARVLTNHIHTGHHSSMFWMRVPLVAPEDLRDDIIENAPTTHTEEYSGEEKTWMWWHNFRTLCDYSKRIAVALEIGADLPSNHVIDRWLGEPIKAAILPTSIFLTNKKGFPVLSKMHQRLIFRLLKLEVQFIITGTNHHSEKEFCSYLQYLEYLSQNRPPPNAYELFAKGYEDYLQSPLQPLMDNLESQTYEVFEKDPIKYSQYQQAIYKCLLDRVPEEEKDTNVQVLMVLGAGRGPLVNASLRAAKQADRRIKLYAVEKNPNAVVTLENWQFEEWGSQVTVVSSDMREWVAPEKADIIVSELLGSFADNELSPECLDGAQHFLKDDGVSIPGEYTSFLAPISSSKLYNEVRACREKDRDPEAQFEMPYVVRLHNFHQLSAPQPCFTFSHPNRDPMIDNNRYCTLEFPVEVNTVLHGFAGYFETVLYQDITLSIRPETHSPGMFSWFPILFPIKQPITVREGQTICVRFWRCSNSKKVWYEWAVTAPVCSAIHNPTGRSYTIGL

Homo sapiens [6] = species: Homo sapiens
[7] = biological target: Calponin-2 (Homo sapiens) (UniProt Q99439)
[8] = biological target: PAT complex subunit CCDC47 (Homo sapiens) (UniProt Q96A33)
Ephrin type-A receptor 2 = Ephrin type-A receptor 2 (Homo sapiens, UniProt P29317)
[9] = biological target: Histone-binding protein RBBP4 (Homo sapiens) (UniProt Q09028)
[10] = biological target: DNA replication licensing factor MCM4 (Homo sapiens) (UniProt P33991)
[11] = biological target: Serine/threonine-protein kinase STK11 (Homo sapiens) (UniProt Q15831)
[12] = biological target: Proteasome Macropain subunit (Homo sapiens) (UniProt P49721)
[13] = biological target: Heterogeneous nuclear ribonucleoprotein M (Homo sapiens) (UniProt P52272)
[14] = biological target: B-cell receptor-associated protein 31 (Homo sapiens) (UniProt P51572)
[15] = biological target: Small ribosomal subunit protein eS6 (Homo sapiens) (UniProt P62753)
[16] = biological target: Alkyldihydroxyacetonephosphate synthase, peroxisomal (Homo sapiens) (UniProt O00116)
[17] = biological target: Ribonucleoside-diphosphate reductase large subunit (Homo sapiens) (UniProt P23921)
Ribonucleoside-diphosphate reductase large subunit (Homo sapiens), sequence (P23921 whole entry, the tested form may be a part): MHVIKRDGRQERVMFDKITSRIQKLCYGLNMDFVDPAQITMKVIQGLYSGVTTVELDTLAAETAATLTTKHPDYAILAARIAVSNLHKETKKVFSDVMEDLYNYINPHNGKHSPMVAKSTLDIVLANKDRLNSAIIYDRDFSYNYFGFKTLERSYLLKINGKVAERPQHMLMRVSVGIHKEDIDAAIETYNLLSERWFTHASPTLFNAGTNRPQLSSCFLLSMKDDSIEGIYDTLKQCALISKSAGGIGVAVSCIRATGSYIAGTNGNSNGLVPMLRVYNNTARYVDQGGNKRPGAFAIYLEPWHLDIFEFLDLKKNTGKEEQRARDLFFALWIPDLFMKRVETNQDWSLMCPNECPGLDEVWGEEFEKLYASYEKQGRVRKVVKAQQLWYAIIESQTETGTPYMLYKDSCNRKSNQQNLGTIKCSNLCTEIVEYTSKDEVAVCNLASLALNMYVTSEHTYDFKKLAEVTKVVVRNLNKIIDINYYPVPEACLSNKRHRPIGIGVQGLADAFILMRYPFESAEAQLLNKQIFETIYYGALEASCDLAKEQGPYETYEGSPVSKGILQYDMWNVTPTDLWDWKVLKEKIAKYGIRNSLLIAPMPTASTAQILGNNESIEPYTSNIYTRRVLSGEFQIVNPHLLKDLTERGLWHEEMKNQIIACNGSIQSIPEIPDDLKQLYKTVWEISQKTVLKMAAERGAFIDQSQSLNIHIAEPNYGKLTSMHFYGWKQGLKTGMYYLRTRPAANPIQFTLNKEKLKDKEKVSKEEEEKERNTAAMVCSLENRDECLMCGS

[18] = biological target: Epithelial discoidin domain-containing receptor 1 (Homo sapiens) (UniProt Q08345)
[19] = biological target: Cytochrome c oxidase subunit 5B, mitochondrial (Homo sapiens) (UniProt P10606)
[20] = biological target: ATP synthase F(0) complex subunit a (Homo sapiens) (UniProt P00846)
ATP synthase F(0) complex subunit a (Homo sapiens), sequence (P00846 whole entry, one chain of several): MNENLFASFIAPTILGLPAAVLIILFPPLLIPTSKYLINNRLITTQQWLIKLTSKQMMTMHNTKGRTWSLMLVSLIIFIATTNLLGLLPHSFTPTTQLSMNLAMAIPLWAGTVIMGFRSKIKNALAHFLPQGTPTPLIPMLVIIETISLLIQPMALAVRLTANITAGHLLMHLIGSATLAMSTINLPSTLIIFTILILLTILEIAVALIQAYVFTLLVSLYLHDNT

[21] = biological target: Interleukin-1 receptor-associated kinase 4 (Homo sapiens) (UniProt Q9NWZ3)
[22] = biological target: Proto-oncogene tyrosine-protein kinase Src (Homo sapiens) (UniProt P12931)
[23] = biological target: Lupus La protein (Homo sapiens) (UniProt P05455)
[24] = biological target: Phosphatidylinositol 5-phosphate 4-kinase type-2 gamma (Homo sapiens) (UniProt Q8TBX8)
[25] = biological target: Bifunctional glutamate/proline--tRNA ligase (Homo sapiens) (UniProt P07814)
[26] = biological target: Focal adhesion kinase 1 (Homo sapiens) (UniProt Q05397)
[27] = biological target: Ubiquitin carboxyl-terminal hydrolase 5 (Homo sapiens) (UniProt P45974)
[28] = biological target: Eukaryotic translation initiation factor 4B (Homo sapiens) (UniProt P23588)
[29] = biological target: LIM domain kinase 1 (Homo sapiens) (UniProt P53667)
LIM domain kinase 1 (Homo sapiens), sequence (P53667 whole entry, looked up, the tested form may be a part): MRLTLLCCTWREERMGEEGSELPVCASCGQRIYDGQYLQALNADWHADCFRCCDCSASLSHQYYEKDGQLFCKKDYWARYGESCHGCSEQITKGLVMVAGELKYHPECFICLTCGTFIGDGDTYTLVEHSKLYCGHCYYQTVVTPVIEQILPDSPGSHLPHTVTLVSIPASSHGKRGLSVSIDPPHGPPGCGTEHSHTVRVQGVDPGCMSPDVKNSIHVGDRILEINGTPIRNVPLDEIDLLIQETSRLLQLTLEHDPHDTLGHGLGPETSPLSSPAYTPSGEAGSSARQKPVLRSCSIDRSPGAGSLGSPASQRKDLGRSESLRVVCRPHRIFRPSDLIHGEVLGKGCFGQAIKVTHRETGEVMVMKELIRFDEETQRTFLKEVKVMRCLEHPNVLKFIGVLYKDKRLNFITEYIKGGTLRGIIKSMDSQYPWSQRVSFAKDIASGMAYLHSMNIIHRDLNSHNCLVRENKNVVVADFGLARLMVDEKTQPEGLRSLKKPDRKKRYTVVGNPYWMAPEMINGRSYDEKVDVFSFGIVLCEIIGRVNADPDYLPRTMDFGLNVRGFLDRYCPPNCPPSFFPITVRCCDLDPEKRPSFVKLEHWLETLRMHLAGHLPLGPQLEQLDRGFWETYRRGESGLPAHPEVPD

[30] = biological target: RNA-binding protein FUS (Homo sapiens) (UniProt P35637)
[31] = biological target: Ras-related protein Rab-5B (Homo sapiens) (UniProt P61020)
[32] = biological target: 5'-AMP-activated protein kinase subunit gamma-2 (Homo sapiens) (UniProt Q9UGJ0)
[33] = biological target: Prelamin-A/C (Homo sapiens) (UniProt P02545)
[34] = biological target: Tyrosine-protein kinase SYK (Homo sapiens) (UniProt P43405)
[35] = biological target: Small ribosomal subunit protein eS17 (Homo sapiens) (UniProt P08708)
[36] = biological target: Phosphorylase b kinase gamma catalytic chain, liver/testis isoform (Homo sapiens) (UniProt P15735)
[37] = biological target: Secretory carrier-associated membrane protein 3 (Homo sapiens) (UniProt O14828)
[38] = biological target: Cold shock domain-containing protein E1 (Homo sapiens) (UniProt O75534)
Cold shock domain-containing protein E1 (Homo sapiens), sequence (O75534 whole entry, the tested form may be a part): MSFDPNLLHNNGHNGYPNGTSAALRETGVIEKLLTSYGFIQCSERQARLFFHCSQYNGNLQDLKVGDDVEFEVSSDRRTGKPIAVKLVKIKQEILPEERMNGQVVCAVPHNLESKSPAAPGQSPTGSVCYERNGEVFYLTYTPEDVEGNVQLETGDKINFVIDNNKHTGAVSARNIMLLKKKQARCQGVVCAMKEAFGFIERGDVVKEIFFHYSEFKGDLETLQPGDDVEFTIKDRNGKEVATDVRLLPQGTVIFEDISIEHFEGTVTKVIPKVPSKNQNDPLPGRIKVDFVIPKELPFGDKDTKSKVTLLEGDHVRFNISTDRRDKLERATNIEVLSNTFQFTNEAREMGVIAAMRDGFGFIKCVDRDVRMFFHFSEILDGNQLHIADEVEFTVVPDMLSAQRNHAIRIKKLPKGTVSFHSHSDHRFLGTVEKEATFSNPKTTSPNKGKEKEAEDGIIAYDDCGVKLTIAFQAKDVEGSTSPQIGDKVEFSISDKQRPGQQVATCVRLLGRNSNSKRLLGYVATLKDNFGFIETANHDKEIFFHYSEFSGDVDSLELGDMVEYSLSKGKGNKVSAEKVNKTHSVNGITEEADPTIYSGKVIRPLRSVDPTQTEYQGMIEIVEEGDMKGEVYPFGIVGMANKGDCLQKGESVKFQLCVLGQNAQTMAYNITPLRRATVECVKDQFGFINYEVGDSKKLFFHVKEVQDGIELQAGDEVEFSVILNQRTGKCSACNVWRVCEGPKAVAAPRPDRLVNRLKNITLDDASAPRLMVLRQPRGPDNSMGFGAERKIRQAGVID

[39] = biological target: Nucleolar and coiled-body phosphoprotein 1 (Homo sapiens) (UniProt Q14978)
Homo sapiens [40] = species: Homo sapiens; remark: listed apart in the source
[41] = biological target: Thioredoxin-related transmembrane protein 1 (Homo sapiens) (UniProt Q9H3N1)
Thioredoxin-related transmembrane protein 1 (Homo sapiens), sequence (Q9H3N1 whole entry): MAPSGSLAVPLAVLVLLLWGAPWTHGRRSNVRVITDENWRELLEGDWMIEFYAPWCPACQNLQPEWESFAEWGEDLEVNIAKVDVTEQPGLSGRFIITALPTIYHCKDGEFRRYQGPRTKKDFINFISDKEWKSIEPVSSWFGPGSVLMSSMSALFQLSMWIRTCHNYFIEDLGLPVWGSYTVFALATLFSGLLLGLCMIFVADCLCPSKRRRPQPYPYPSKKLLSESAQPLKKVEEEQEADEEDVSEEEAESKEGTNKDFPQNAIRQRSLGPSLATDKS

[42] = biological target: Tyrosine-protein kinase Lyn (Homo sapiens) (UniProt P07948)
[43] = biological target: Small ribosomal subunit protein uS4 (Homo sapiens) (UniProt P46781)
[44] = biological target: Glycogen synthase kinase-3 alpha (Homo sapiens) (UniProt P49840)
[45] = biological target: D-3-phosphoglycerate dehydrogenase (Homo sapiens) (UniProt O43175)
[46] = biological target: Tyrosine-protein kinase CSK (Homo sapiens) (UniProt P41240)
Note: assay method not described here.

Sister chromatid cohesion protein PDS5 homolog A (Homo sapiens), sequence (Q29RF7 whole entry): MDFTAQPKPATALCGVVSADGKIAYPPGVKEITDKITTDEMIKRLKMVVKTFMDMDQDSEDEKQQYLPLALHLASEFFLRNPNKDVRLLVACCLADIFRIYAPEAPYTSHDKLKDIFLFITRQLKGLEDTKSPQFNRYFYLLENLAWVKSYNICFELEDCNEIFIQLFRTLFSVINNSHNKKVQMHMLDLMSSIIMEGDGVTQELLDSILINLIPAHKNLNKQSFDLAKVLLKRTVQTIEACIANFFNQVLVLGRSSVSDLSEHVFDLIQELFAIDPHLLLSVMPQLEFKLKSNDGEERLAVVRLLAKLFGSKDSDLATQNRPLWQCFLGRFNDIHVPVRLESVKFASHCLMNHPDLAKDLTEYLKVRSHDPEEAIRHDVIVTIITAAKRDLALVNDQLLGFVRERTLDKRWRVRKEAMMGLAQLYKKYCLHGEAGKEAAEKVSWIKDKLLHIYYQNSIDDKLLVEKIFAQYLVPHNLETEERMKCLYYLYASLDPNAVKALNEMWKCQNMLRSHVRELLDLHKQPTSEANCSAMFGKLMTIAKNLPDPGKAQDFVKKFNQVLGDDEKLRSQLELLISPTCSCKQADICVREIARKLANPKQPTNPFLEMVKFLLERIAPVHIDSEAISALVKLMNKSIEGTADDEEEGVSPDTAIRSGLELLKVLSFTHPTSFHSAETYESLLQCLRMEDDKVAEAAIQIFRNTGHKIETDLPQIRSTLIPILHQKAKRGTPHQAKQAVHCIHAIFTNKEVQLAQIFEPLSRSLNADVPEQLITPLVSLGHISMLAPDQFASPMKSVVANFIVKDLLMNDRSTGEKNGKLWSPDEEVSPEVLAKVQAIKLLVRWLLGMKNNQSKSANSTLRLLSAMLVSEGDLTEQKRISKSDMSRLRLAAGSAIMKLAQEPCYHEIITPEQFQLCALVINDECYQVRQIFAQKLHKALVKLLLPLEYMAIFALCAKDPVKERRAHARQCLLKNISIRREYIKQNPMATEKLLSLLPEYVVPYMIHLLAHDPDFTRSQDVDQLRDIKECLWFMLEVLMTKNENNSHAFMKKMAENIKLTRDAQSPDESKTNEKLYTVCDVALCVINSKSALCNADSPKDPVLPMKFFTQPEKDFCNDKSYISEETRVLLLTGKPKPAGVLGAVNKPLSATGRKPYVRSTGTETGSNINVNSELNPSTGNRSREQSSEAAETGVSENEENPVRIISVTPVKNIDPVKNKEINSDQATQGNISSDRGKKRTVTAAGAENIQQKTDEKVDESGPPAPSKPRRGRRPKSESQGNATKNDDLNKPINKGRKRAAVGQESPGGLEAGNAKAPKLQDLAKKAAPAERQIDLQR
Serine/threonine-protein phosphatase PGAM5, mitochondrial (Homo sapiens), sequence (Q96HS1 whole entry): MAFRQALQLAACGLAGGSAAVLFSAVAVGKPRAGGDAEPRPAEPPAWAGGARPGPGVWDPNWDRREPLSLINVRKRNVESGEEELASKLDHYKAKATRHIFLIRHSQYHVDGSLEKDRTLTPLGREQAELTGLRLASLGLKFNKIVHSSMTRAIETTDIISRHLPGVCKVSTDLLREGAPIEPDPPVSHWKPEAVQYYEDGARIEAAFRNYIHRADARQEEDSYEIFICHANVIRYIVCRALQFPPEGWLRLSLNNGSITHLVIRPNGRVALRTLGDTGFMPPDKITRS

Question: Which ED50 [1] does the source give for Cc1ccc(C(=O)Nc2cccc(C(F)(F)F)c2)cc1Nc1nc(-c2cccnc2)nc2nn(C)cc12 here?
Answer: 29.2 nM

Question: And the ED50 [2]?
Answer: 2820 nM

Question: And the ED50 [3]?
Answer: 7340 nM

Question: What about the ED50 [4] of the same compound?
Answer: 17.7 nM

Question: And the ED50 [5]?
Answer: 3000 nM

Question: What about the ED50 (Homo sapiens [6]) of the same compound?
Answer: 56.9 nM

Question: And the ED50 [7]?
Answer: 79200 nM

Question: And the ED50 [8]?
Answer: 40600 nM

Question: What about the ED50 (Ephrin type-A receptor 2) of the same compound?
Answer: 6170 nM

Question: What about the ED50 [9] of the same compound?
Answer: 458 nM

Question: What about the ED50 [10] of the same compound?
Answer: 76.3 nM

Question: What about the ED50 [11] of the same compound?
Answer: 18 nM

Question: What about the ED50 [12] of the same compound?
Answer: 53.6 nM

Question: What about the ED50 [13] of the same compound?
Answer: 13500 nM

Question: And the ED50 [14]?
Answer: 1700 nM

Question: And the ED50 [15]?
Answer: 61 nM

Question: What about the ED50 [16] of the same compound?
Answer: 486 nM

Question: And the ED50 [17]?
Answer: 5740 nM

Question: And the ED50 [18]?
Answer: 136 nM

Question: And the ED50 [19]?
Answer: 15000 nM

Question: And the ED50 [20]?
Answer: 622 nM

Question: And the ED50 [21]?
Answer: 647000 nM

Question: And the ED50 [22]?
Answer: 3430 nM

Question: What about the ED50 [23] of the same compound?
Answer: 27.9 nM

Question: What about the ED50 [24] of the same compound?
Answer: 5.8 nM

Question: What about the ED50 [25] of the same compound?
Answer: 1210 nM

Question: And the ED50 [26]?
Answer: 47.6 nM

Question: What about the ED50 [27] of the same compound?
Answer: 9.88 nM

Question: What about the ED50 [28] of the same compound?
Answer: 0.1 nM

Question: And the ED50 [29]?
Answer: 1530 nM

Question: And the ED50 [30]?
Answer: 36.6 nM

Question: And the ED50 [31]?
Answer: 32.7 nM

Question: What about the ED50 [32] of the same compound?
Answer: 40.8 nM

Question: And the ED50 [33]?
Answer: 2400 nM

Question: And the ED50 [34]?
Answer: 216 nM

Question: And the ED50 [35]?
Answer: 1760 nM

Question: And the ED50 [36]?
Answer: 18.1 nM

Question: What about the ED50 [37] of the same compound?
Answer: 1010 nM

Question: What about the ED50 [38] of the same compound?
Answer: 99 nM

Question: What about the ED50 [39] of the same compound?
Answer: 178 nM

Question: And the ED50 (Homo sapiens [40])?
Answer: 716 nM

Question: And the ED50 [41]?
Answer: 131000 nM

Question: And the ED50 [42]?
Answer: 60500 nM

Question: What about the ED50 [43] of the same compound?
Answer: 0.236 nM

Question: What about the ED50 [44] of the same compound?
Answer: 88.5 nM

Question: What about the ED50 [45] of the same compound?
Answer: 15000 nM

Question: What about the ED50 [46] of the same compound?
Answer: 1860 nM

Question: What does the source list for Cc1ccc(C(=O)Nc2cccc(C(F)(F)F)c2)cc1Nc1nc(-c2cccnc2)nc2c1cnn2C?
Answer: ED50 [1]: 3120 nM; ED50 [2]: 978 nM; ED50 [3]: 809 nM; ED50 [4]: 115 nM; ED50 [5]: 18200 nM; ED50 (Homo sapiens [6]): 33900 nM; ED50 [7]: 85500 nM; ED50 [8]: 136 nM; ED50 (Ephrin type-A receptor 2): 580 nM; ED50 [9]: 11000 nM; ED50 [10]: 73300 nM; ED50 [11]: 2390 nM; ED50 [12]: 3310 nM; ED50 [13]: 8570 nM; ED50 [14]: 69.1 nM; ED50 [15]: 14.4 nM; ED50 [16]: 1.6 nM; ED50 [17]: 1670 nM; ED50 [18]: 484 nM; ED50 [19]: 39400 nM; ED50 [20]: 677 nM; ED50 [21]: 466 nM; ED50 [22]: 3600 nM; ED50 [23]: 1940 nM; ED50 [24]: 290 nM; ED50 [25]: 32.4 nM; ED50 [26]: 10400 nM; ED50 [27]: 130000 nM; ED50 [28]: 449 nM; ED50 [29]: 772 nM; ED50 [30]: 17.5 nM; ED50 [31]: 18100 nM; ED50 [32]: 57400 nM; ED50 [33]: 5410 nM; ED50 [34]: 3850 nM; ED50 [35]: 21800 nM; ED50 [36]: 144 nM; ED50 [37]: 2.92 nM; ED50 [38]: 72600 nM; ED50 [39]: 13.9 nM; ED50 (Homo sapiens [40]): 2310 nM; ED50 [41]: 219000 nM; ED50 [42]: 1340 nM; ED50 [43]: 10700 nM; ED50 [44]: 3.63 nM; ED50 [45]: 9.45 nM; ED50 [46]: 4520 nM
